Measurements: US7268245B2, “Multinuclear platinum compounds” (Sonus Pharmaceuticals, Inc., priority 2004, dated 2007)
Where two headings read alike, the source gives them in different places.

Columns and labels:
Assay type in all cases: cell-based
[1] = test system: HT29 colorectal carcinoma cell line; experiment: MTS cell viability assay, growth inhibition, HT29; conditions: HT29 cells, 72 hours of treatment
Method: (§1) Cytotoxicity was measured in six cell lines: two colorectal carcinoma cell lines (HT29 and HCT-116); two small cell lung cancer cell lines (NCI-H69 and NCI-H69/AR); and two ovarian cancer cell lines (A2780 and A2780/DPPt). Viable cell number was measured using the MTS cell viability assay ([…] 96 AQueous One Solution Cell Proliferation Assay kit available from Promega, US). […] Cisplatin was prepared in saline. […] All tumor lines were propagated under sterile conditions and incubated at 37° C. in HEPA-filtered CO2 tissue culture incubators with 5% CO2 and 95% humidity in colorless RPMI 1640 medium (Mediatech, Herndon, Va.) containing 5% fetal bovine serum (complete medium). The ovarian and colon tumor cell lines were plated in microtiter plates at a density of 5,000 cells per well. The lung lines were plated at a density of 10,000 cells per well. Viable cell number was measured by the MTS dye conversion assay after a total of 72 hours of treatment. […] The plates were incubated for four hours at 37° C. The absorbance was measured at 490 nm on a Coulter microplate reader.

[2] = test system: HCT-116 colorectal carcinoma cell line; experiment: MTS cell viability assay, growth inhibition, HCT-116; conditions: HCT-116 cells, 72 hours of treatment
Method: as §1

[3] = test system: NCI-H69 small cell lung cancer cell line; experiment: MTS cell viability assay, growth inhibition, NCI-H69; conditions: NCI-H69 cells, 72 hours of treatment
Method: as §1

[4] = test system: NCI-H69/AR small cell lung cancer cell line; experiment: MTS cell viability assay, growth inhibition, NCI-H69/AR; conditions: NCI-H69/AR cells, 72 hours of treatment
Method: as §1

[5] = test system: A2780 ovarian cancer cell line; experiment: MTS cell viability assay, growth inhibition, A2780; conditions: A2780 cells
Method: as §1

[6] = test system: A2780/DDPT ovarian cancer cell line (platinum resistant); experiment: MTS cell viability assay, growth inhibition, A2780/DDPT
Method: as §1

[7] = 72 hours of treatment, MTS, read-out: Growth Inhibition (GI50) A2780
[8] = A2780/DDPT cells, 72 hours of treatment, MTS, read-out: Growth Inhibition (GI50) A2780/DDPT
[9] = method of Example 10 (text of Examples 8 and 9), read-out: GI50 for A2780
[10] = A2780 (platinum resistant) cells, method of Example 10 (text of Examples 8 and 9), read-out: GI50 for A2780 (platinum resistant)

Molecule | GI50 [1] [µM] | GI50 [2] [µM] | GI50 [3] [µM] | GI50 [4] [µM] | GI50 [5, 7] [µM] | GI50 [6, 8] [µM] | GI50 [5, 9] [µM] | GI50 [6, 10] [µM]
1,3-Diamino-2-hydroxypropane-N,N,N′,N′-tetraacetic-acid-diplatinum [DAPTA-diplatinum] | > 100 | 81 | 27 | 21 | 20 | > 100 |  | 
N.N.[Cl][Pt][Cl] [Cisplatin, cis-diaminedichloroplatinum (II), reference compound] | 61 | 43 | 15 | 15 | 15 | 57 | 15 | 57
diethylenetriamine-N,N,N′,N″,N″-pentaacetic-acid-diplatinum [DTPA-diplatinum] | 54 | 41 | 18 | 23 | 19 | 62 |  | 
diethylenetriamine-N,N,N′,N″,N″-pentaacetic-acid-triplatinum [DTPA-triplatinum] |  |  |  |  |  |  | 19 | 63
ethylene glycol-bis-(β-aminoethyl)-N,N,N′,N′-tetraacetic-acid-diplatinum [EGTA-diplatinum] |  | > 100 | > 100 | > 100 | > 100 |  |  | 
triethylene-tetraamine-N,N,N′,N″,N′″,N′″-hexaacetic-acid-diplatinum [TTHA-diplatinum] | 53 | 23 | 9.3 | 16 | 7.1 | 48 |  | 
triethylenetetraamine-N,N,N′,N″,N′″,N′″-hexaacetic-acid-tetraplatinum [TTHA-tetraplatinum] |  |  |  |  |  |  | 7 | 50
